From PubChem BioAssay (NCI)
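At the GI50, growth is halved. TGI denotes the concentration required for complete inhibition of growth.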

What was measured:
Assay in all cases: growth of human tumour cells (NCI), 384-well format
UACC-62 melanoma = test system: UACC-62 melanoma
OVCAR-5 ovarian = test system: OVCAR-5 ovarian
MOLT-4 leukemia = test system: MOLT-4 leukemia
SK-MEL-28 melanoma = test system: SK-MEL-28 melanoma
T-47D breast = test system: T-47D breast
HT29 colon = test system: HT29 colon
U251 glioblastoma = test system: U251 glioblastoma
MDA-MB-435 melanoma = test system: MDA-MB-435 melanoma
SK-MEL-2 melanoma = test system: SK-MEL-2 melanoma
HCT-15 colon = test system: HCT-15 colon
NCI-H522 lung = test system: NCI-H522 lung
HCC-2998 colon = test system: HCC-2998 colon
UACC-257 melanoma = test system: UACC-257 melanoma
HS 578T breast = test system: HS 578T breast
MCF7 breast = test system: MCF7 breast
SN12C renal = test system: SN12C renal
SNB-19 CNS = test system: SNB-19 CNS
DU-145 prostate = test system: DU-145 prostate
MDA-MB-231 breast = test system: MDA-MB-231 breast
SR leukemia = test system: SR leukemia
M14 melanoma = test system: M14 melanoma
IGROV1 ovarian = test system: IGROV1 ovarian
A498 renal = test system: A498 renal
RXF 393 renal = test system: RXF 393 renal
SK-OV-3 ovarian = test system: SK-OV-3 ovarian
RPMI-8226 leukemia = test system: RPMI-8226 leukemia
BT-549 breast = test system: BT-549 breast
CAKI-1 renal = test system: CAKI-1 renal
SW-620 colon = test system: SW-620 colon
SF-268 CNS = test system: SF-268 CNS
HOP-92 NSCLC = test system: HOP-92 NSCLC
NCI/ADR-RES ovarian = test system: NCI/ADR-RES ovarian
PC-3 prostate = test system: PC-3 prostate
NCI-H460 NSCLC = test system: NCI-H460 NSCLC
OVCAR-4 ovarian = test system: OVCAR-4 ovarian
CCRF-CEM leukemia = test system: CCRF-CEM leukemia
SF-295 CNS = test system: SF-295 CNS
EKVX NSCLC = test system: EKVX NSCLC
SF-539 CNS = test system: SF-539 CNS
MALME-3M melanoma = test system: MALME-3M melanoma
786-0 renal = test system: 786-0 renal
ACHN renal = test system: ACHN renal
OVCAR-3 ovarian = test system: OVCAR-3 ovarian
SNB-75 CNS = test system: SNB-75 CNS
A549 NSCLC = test system: A549 NSCLC
COLO 205 colon = test system: COLO 205 colon
NCI-H322M lung = test system: NCI-H322M lung
SK-MEL-5 melanoma = test system: SK-MEL-5 melanoma
MDA-MB-468 breast = test system: MDA-MB-468 breast
HL-60(TB) leukemia = test system: HL-60(TB) leukemia
TK-10 renal = test system: TK-10 renal
HOP-62 NSCLC = test system: HOP-62 NSCLC
OVCAR-8 ovarian = test system: OVCAR-8 ovarian
NCI-H23 lung = test system: NCI-H23 lung
NCI-H226 lung = test system: NCI-H226 lung
KM12 colon = test system: KM12 colon

Q: With `COc1cccc(-c2cc(=O)c3ccccc3o2)c1N` as the molecule, how does the GI50 (UACC-62 melanoma) read?
A: 4.95 µM

Q: What about the TGI (UACC-62 melanoma) of the same molecule?
A: 28.9 µM

Q: What about the GI50 (OVCAR-5 ovarian) of the same molecule?
A: 43.1 µM

Q: And the TGI (OVCAR-5 ovarian)?
A: > 100 µM

Q: What about the GI50 (MOLT-4 leukemia) of the same molecule?
A: 25.9 µM

Q: And the TGI (MOLT-4 leukemia)?
A: 66.5 µM

Q: What about the GI50 (SK-MEL-28 melanoma) of the same molecule?
A: 4.03 µM

Q: What about the TGI (SK-MEL-28 melanoma) of the same molecule?
A: 9.78 µM

Q: And the GI50 (T-47D breast)?
A: 59.3 µM

Q: And the TGI (T-47D breast)?
A: > 100 µM

Q: What about the GI50 (HT29 colon) of the same molecule?
A: 13.2 µM

Q: And the TGI (HT29 colon)?
A: > 100 µM

Q: What about the GI50 (U251 glioblastoma) of the same molecule?
A: 97.2 µM

Q: And the TGI (U251 glioblastoma)?
A: > 100 µM

Q: What about the GI50 (MDA-MB-435 melanoma) of the same molecule?
A: 10.4 µM

Q: And the TGI (MDA-MB-435 melanoma)?
A: > 100 µM

Q: What about the GI50 (SK-MEL-2 melanoma) of the same molecule?
A: 27.3 µM

Q: What about the TGI (SK-MEL-2 melanoma) of the same molecule?
A: 55.7 µM

Q: What about the GI50 (HCT-15 colon) of the same molecule?
A: 91.8 µM

Q: And the TGI (HCT-15 colon)?
A: > 100 µM

Q: And the GI50 (NCI-H522 lung)?
A: 30 µM

Q: What about the TGI (NCI-H522 lung) of the same molecule?
A: > 100 µM

Q: And the GI50 (HCC-2998 colon)?
A: 13.8 µM

Q: What about the TGI (HCC-2998 colon) of the same molecule?
A: 58 µM

Q: And the GI50 (UACC-257 melanoma)?
A: 5.54 µM

Q: What about the TGI (UACC-257 melanoma) of the same molecule?
A: 37.2 µM

Q: What about the GI50 (HS 578T breast) of the same molecule?
A: 47.7 µM

Q: And the TGI (HS 578T breast)?
A: > 100 µM

Q: What about the GI50 (MCF7 breast) of the same molecule?
A: 88.1 µM

Q: What about the TGI (MCF7 breast) of the same molecule?
A: > 100 µM

Q: What about the GI50 (SN12C renal) of the same molecule?
A: 72.4 µM

Q: What about the TGI (SN12C renal) of the same molecule?
A: > 100 µM

Q: And the GI50 (SNB-19 CNS)?
A: > 100 µM

Q: And the TGI (SNB-19 CNS)?
A: > 100 µM

Q: And the GI50 (DU-145 prostate)?
A: 54.9 µM

Q: What about the TGI (DU-145 prostate) of the same molecule?
A: > 100 µM

Q: What about the GI50 (MDA-MB-231 breast) of the same molecule?
A: 40.4 µM

Q: And the TGI (MDA-MB-231 breast)?
A: > 100 µM

Q: What about the GI50 (SR leukemia) of the same molecule?
A: 31.3 µM

Q: What about the TGI (SR leukemia) of the same molecule?
A: 96.5 µM

Q: What about the GI50 (M14 melanoma) of the same molecule?
A: 3.91 µM

Q: And the TGI (M14 melanoma)?
A: 20 µM

Q: And the GI50 (IGROV1 ovarian)?
A: 30.7 µM

Q: What about the TGI (IGROV1 ovarian) of the same molecule?
A: > 100 µM

Q: And the GI50 (A498 renal)?
A: 49.7 µM

Q: And the TGI (A498 renal)?
A: > 100 µM

Q: And the GI50 (RXF 393 renal)?
A: 46.4 µM

Q: And the TGI (RXF 393 renal)?
A: > 100 µM

Q: What about the GI50 (SK-OV-3 ovarian) of the same molecule?
A: 79.7 µM

Q: What about the TGI (SK-OV-3 ovarian) of the same molecule?
A: > 100 µM

Q: What about the GI50 (RPMI-8226 leukemia) of the same molecule?
A: 34.4 µM

Q: And the TGI (RPMI-8226 leukemia)?
A: > 100 µM

Q: And the GI50 (BT-549 breast)?
A: 77.3 µM

Q: And the TGI (BT-549 breast)?
A: > 100 µM

Q: And the GI50 (CAKI-1 renal)?
A: > 100 µM

Q: What about the TGI (CAKI-1 renal) of the same molecule?
A: > 100 µM

Q: And the GI50 (SW-620 colon)?
A: 18.8 µM

Q: What about the TGI (SW-620 colon) of the same molecule?
A: > 100 µM

Q: And the GI50 (SF-268 CNS)?
A: > 100 µM

Q: What about the TGI (SF-268 CNS) of the same molecule?
A: > 100 µM

Q: What about the GI50 (HOP-92 NSCLC) of the same molecule?
A: 56.1 µM

Q: What about the TGI (HOP-92 NSCLC) of the same molecule?
A: > 100 µM

Q: And the GI50 (NCI/ADR-RES ovarian)?
A: 25.1 µM

Q: And the TGI (NCI/ADR-RES ovarian)?
A: 74.7 µM

Q: And the GI50 (PC-3 prostate)?
A: > 100 µM

Q: And the TGI (PC-3 prostate)?
A: > 100 µM

Q: And the GI50 (NCI-H460 NSCLC)?
A: 66.1 µM

Q: What about the TGI (NCI-H460 NSCLC) of the same molecule?
A: > 100 µM

Q: What about the GI50 (OVCAR-4 ovarian) of the same molecule?
A: 28.1 µM

Q: And the TGI (OVCAR-4 ovarian)?
A: > 100 µM

Q: What about the GI50 (CCRF-CEM leukemia) of the same molecule?
A: 23.1 µM

Q: What about the TGI (CCRF-CEM leukemia) of the same molecule?
A: 67.6 µM

Q: What about the GI50 (SF-295 CNS) of the same molecule?
A: > 100 µM

Q: And the TGI (SF-295 CNS)?
A: > 100 µM

Q: And the GI50 (EKVX NSCLC)?
A: 37.1 µM

Q: And the TGI (EKVX NSCLC)?
A: > 100 µM

Q: And the GI50 (SF-539 CNS)?
A: > 100 µM

Q: What about the TGI (SF-539 CNS) of the same molecule?
A: > 100 µM

Q: And the GI50 (MALME-3M melanoma)?
A: 2.25 µM

Q: And the TGI (MALME-3M melanoma)?
A: 5.26 µM

Q: What about the GI50 (786-0 renal) of the same molecule?
A: > 100 µM

Q: What about the TGI (786-0 renal) of the same molecule?
A: > 100 µM

Q: What about the GI50 (ACHN renal) of the same molecule?
A: > 100 µM

Q: And the TGI (ACHN renal)?
A: > 100 µM

Q: And the GI50 (OVCAR-3 ovarian)?
A: 65 µM

Q: What about the TGI (OVCAR-3 ovarian) of the same molecule?
A: > 100 µM

Q: And the GI50 (SNB-75 CNS)?
A: 41.1 µM

Q: What about the TGI (SNB-75 CNS) of the same molecule?
A: > 100 µM

Q: What about the GI50 (A549 NSCLC) of the same molecule?
A: > 100 µM

Q: What about the TGI (A549 NSCLC) of the same molecule?
A: > 100 µM

Q: What about the GI50 (COLO 205 colon) of the same molecule?
A: 3.97 µM

Q: What about the TGI (COLO 205 colon) of the same molecule?
A: 10.8 µM

Q: What about the GI50 (NCI-H322M lung) of the same molecule?
A: > 100 µM

Q: What about the TGI (NCI-H322M lung) of the same molecule?
A: > 100 µM

Q: What about the GI50 (SK-MEL-5 melanoma) of the same molecule?
A: 10.8 µM

Q: What about the TGI (SK-MEL-5 melanoma) of the same molecule?
A: 37.9 µM

Q: And the GI50 (MDA-MB-468 breast)?
A: 0.278 µM

Q: What about the TGI (MDA-MB-468 breast) of the same molecule?
A: 0.844 µM

Q: And the GI50 (HL-60(TB) leukemia)?
A: 2.79 µM

Q: What about the TGI (HL-60(TB) leukemia) of the same molecule?
A: 21.2 µM

Q: What about the GI50 (TK-10 renal) of the same molecule?
A: > 100 µM

Q: What about the TGI (TK-10 renal) of the same molecule?
A: > 100 µM

Q: And the GI50 (HOP-62 NSCLC)?
A: 33.1 µM

Q: What about the TGI (HOP-62 NSCLC) of the same molecule?
A: > 100 µM

Q: What about the GI50 (OVCAR-8 ovarian) of the same molecule?
A: 38 µM

Q: And the TGI (OVCAR-8 ovarian)?
A: > 100 µM

Q: And the GI50 (NCI-H23 lung)?
A: 23.9 µM

Q: What about the TGI (NCI-H23 lung) of the same molecule?
A: 99.5 µM

Q: What about the GI50 (NCI-H226 lung) of the same molecule?
A: 25 µM

Q: What about the TGI (NCI-H226 lung) of the same molecule?
A: 70.2 µM

Q: And the GI50 (KM12 colon)?
A: 40.7 µM

Q: What about the TGI (KM12 colon) of the same molecule?
A: > 100 µM
